Assay results as given in ChEMBL document CHEMBL1201862, “PubChem BioAssay data set” (2004).
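Five concentrations, 48 hours, 96-well plates. GI50 is the concentration that inhibits growth by half.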 Activity calls are given as the source filed them. Cut-off read from the data, not from the text of the source: active = GI50 up to about 1.1 µM and inactive = higher.

Columns and labels:
Assay in all cases: growth of human tumour cells (NCI), 48 h
786-0 = system: 786-0
A498 = system: A498
ACHN = system: ACHN
BT-549 = system: BT-549
HCT-15 = system: HCT-15
IGROV-1 = system: IGROV-1
K562 = system: K562
KM12 = system: KM12
LOX IMVI = system: LOX IMVI
MDA-MB-435 = system: MDA-MB-435
MDA-N = system: MDA-N
Malme-3M = system: Malme-3M
NCI-H23 = system: NCI-H23
NCI-H522 = system: NCI-H522
SF-268 = system: SF-268
SR = system: SR
SW-620 = system: SW-620
UACC-62 = system: UACC-62
NCI-H460 = system: NCI-H460

SMILES	GI50 (786-0)	GI50 (A498)	GI50 (ACHN)	GI50 (BT-549)	GI50 (HCT-15) [µM]	GI50 (IGROV-1)	GI50 (K562)	GI50 (KM12)	GI50 (LOX IMVI)	GI50 (MDA-MB-435)	GI50 (MDA-N)	GI50 (Malme-3M)	GI50 (NCI-H23)	GI50 (NCI-H522)	GI50 (SF-268)	GI50 (SR)	GI50 (SW-620)	GI50 (UACC-62)	GI50 (NCI-H460)
CCC1c2[nH]c3ccccc3c2C[C@H]2C(=O)NC(Cc3c[nH]c4ccccc34)C(=O)N12 (stereo partly specified)	23.4 µM (inactive)	30.5 µM (inactive)	29.4 µM (inactive)	22.6 µM (inactive)	28.5	24.4 µM (inactive)	27.6 µM (inactive)	18.9 µM (inactive)	22.1 µM (inactive)	19.7 µM (inactive)	24.2 µM (inactive)	18.4 µM (inactive)	25.5 µM (inactive)	22.6 µM (inactive)	29.7 µM (inactive)	16.9 µM (inactive)	38.5 µM (inactive)	15.5 µM (inactive)	–
COc1cc(/C=C\c2nnc(/C=C\c3ccc(O)c(OC)c3)s2)ccc1O	3.85 µM (inactive)	2.27 µM (inactive)	3.61 µM (inactive)	1.89 µM (inactive)	1.49	3.78 µM (inactive)	1.77 µM (inactive)	2.2 µM (inactive)	2.59 µM (inactive)	0.495 µM (active)	0.689 µM (active)	2.11 µM (inactive)	2.45 µM (inactive)	1.67 µM (inactive)	4.06 µM (inactive)	1.24 µM (inactive)	1.74 µM (inactive)	2.48 µM (inactive)	3.09 µM (inactive)
Oc1ccc(Cc2cc(Cc3ccc(O)cc3)cc(Cc3ccc(O)cc3)c2)cc1	> 50 µM (inactive)	> 50 µM (inactive)	> 50 µM (inactive)	> 50 µM (inactive)	> 50	> 50 µM (inactive)	> 50 µM (inactive)	> 50 µM (inactive)	> 50 µM (inactive)	> 50 µM (inactive)	> 50 µM (inactive)	> 50 µM (inactive)	–	> 50 µM (inactive)	> 50 µM (inactive)	> 50 µM (inactive)	> 50 µM (inactive)	> 50 µM (inactive)	> 50 µM (inactive)
N#CC(C#N)=C1CCCS(=O)(=O)c2ccccc21	> 100 µM (inactive)	56.4 µM (inactive)	> 100 µM (inactive)	> 100 µM (inactive)	> 100	> 100 µM (inactive)	> 100 µM (inactive)	> 100 µM (inactive)	> 100 µM (inactive)	> 100 µM (inactive)	> 100 µM (inactive)	–	> 100 µM (inactive)	–	> 100 µM (inactive)	> 100 µM (inactive)	> 100 µM (inactive)	> 100 µM (inactive)	> 100 µM (inactive)
Cc1cc2nc(N)n[n+]([O-])c2cc1C	> 100 µM (inactive)	> 100 µM (inactive)	> 100 µM (inactive)	> 100 µM (inactive)	> 100	> 100 µM (inactive)	> 100 µM (inactive)	> 100 µM (inactive)	> 100 µM (inactive)	> 100 µM (inactive)	> 100 µM (inactive)	> 100 µM (inactive)	> 100 µM (inactive)	> 100 µM (inactive)	> 100 µM (inactive)	> 100 µM (inactive)	> 100 µM (inactive)	> 100 µM (inactive)	–
O=C1CSC(c2cccc(Oc3ccccc3)c2)N1c1cccc(Cl)c1Cl (stereo unspecified)	27.7 µM (inactive)	26.1 µM (inactive)	20.7 µM (inactive)	19.9 µM (inactive)	19.5	–	20.4 µM (inactive)	26.7 µM (inactive)	13.6 µM (inactive)	13.7 µM (inactive)	21 µM (inactive)	30.4 µM (inactive)	27.5 µM (inactive)	20.7 µM (inactive)	23.6 µM (inactive)	19.8 µM (inactive)	29.1 µM (inactive)	17.8 µM (inactive)	26 µM (inactive)
CCOC(=O)C(NC(=O)C(CCCCNP(=O)(OCC)OCC)NC(=O)C(C)NC(C)=O)C(C)C (stereo unspecified)	> 100 µM (inactive)	80.7 µM (inactive)	> 100 µM (inactive)	> 100 µM (inactive)	> 100	> 100 µM (inactive)	> 100 µM (inactive)	> 100 µM (inactive)	> 100 µM (inactive)	> 100 µM (inactive)	> 100 µM (inactive)	> 100 µM (inactive)	> 100 µM (inactive)	–	> 100 µM (inactive)	> 100 µM (inactive)	> 100 µM (inactive)	–	> 100 µM (inactive)
O=C1NC(=O)/C(=C/c2ccc(S(=O)(=O)N/N=C/c3ccc(Cl)cc3)cc2)N1	> 100 µM (inactive)	23.6 µM (inactive)	> 100 µM (inactive)	> 100 µM (inactive)	> 100	92.9 µM (inactive)	> 100 µM (inactive)	> 100 µM (inactive)	> 100 µM (inactive)	> 100 µM (inactive)	> 100 µM (inactive)	> 100 µM (inactive)	> 100 µM (inactive)	–	> 100 µM (inactive)	61.2 µM (inactive)	> 100 µM (inactive)	> 100 µM (inactive)	> 100 µM (inactive)
CC1=[N+](C)CCCN1C	> 100 µM (inactive)	8.69 µM (inactive)	> 100 µM (inactive)	> 100 µM (inactive)	> 100	> 100 µM (inactive)	> 100 µM (inactive)	> 100 µM (inactive)	> 100 µM (inactive)	> 100 µM (inactive)	> 100 µM (inactive)	> 100 µM (inactive)	> 100 µM (inactive)	> 100 µM (inactive)	> 100 µM (inactive)	> 100 µM (inactive)	> 100 µM (inactive)	–	> 100 µM (inactive)
CC1OC1P(=O)(O)O (stereo unspecified)	> 100 µM (inactive)	> 100 µM (inactive)	> 100 µM (inactive)	> 100 µM (inactive)	> 100	> 100 µM (inactive)	> 100 µM (inactive)	> 100 µM (inactive)	> 100 µM (inactive)	> 100 µM (inactive)	> 100 µM (inactive)	–	> 100 µM (inactive)	–	> 100 µM (inactive)	> 100 µM (inactive)	> 100 µM (inactive)	> 100 µM (inactive)	> 100 µM (inactive)
Cc1c(O)c(OC2OC(CO)C(O)C(O)C2O)cc2c1CC[C@@H]1C2(C)C(=O)C[C@]2(C)[C@@H]([C@@](C)(O)C(=O)CCC(C)(C)O)[C@H](O)C[C@@]12C (stereo partly specified)	> 100 µM (inactive)	> 100 µM (inactive)	> 100 µM (inactive)	> 100 µM (inactive)	> 100	> 100 µM (inactive)	> 100 µM (inactive)	> 100 µM (inactive)	–	> 100 µM (inactive)	> 100 µM (inactive)	> 100 µM (inactive)	> 100 µM (inactive)	> 100 µM (inactive)	> 100 µM (inactive)	> 100 µM (inactive)	> 100 µM (inactive)	> 100 µM (inactive)	> 100 µM (inactive)
